# According to patent US20220296619A1, “PHARMACEUTICAL FORMULATIONS OF TENOFOVIR ALAFENAMIDE” (priority 2019, published 2022):
# Assays:
# [1] = Chemical stability of compositions on storage (total impurities); format: physicochemical
# Source text: [No. 1 in FIG. 3b is isopropyl ((R)—((((R)-1-(6-amino-9H-purin-9-yl)propan-2-yl)oxy)methyl) (phenoxy)phosphoryl)-L-alaninate]
# physchem = settings: water
# [2] = Syringeability/injectability with various wetting agents; format: physicochemical; settings: 40% TAF/60% PLGA 5050, 125 mg/mL suspension, wetting agent in minimal amounts
# Protocol: Suspending vehicles with various wetting agents were prepared. […] A formulation 40% TAF (free base, crystalline, and micronized) and 60% PLGA 5050 was used to obtain a 125 mg/mL suspension. These suspensions were evaluated for syringeability/injectability. […] Additionally, Tween 80 could accommodate sterilization via filtration.
# [3] = cited from earlier work
compound,measurement,setting,value
"CC(C)OC(=O)[C@H](C)N[P@](=O)(CO[C@H](C)Cn1cnc2c(N)ncnc21)Oc1ccccc1 [Free base, (S)-isopropyl-2-(((S)—((((R)-1-(6-amino-9H-purin-9-yl)propan-2-yl)oxy)methyl)(phenoxy)phosphoryl)amino)propanoate]",total impurities,[1]; 40° C./75% RH closed for 2 weeks,2.1%
same,total impurities observed initially,[1]; initial,2.1%
same,solubility,physchem,~3500 µg/mL
polysorbate 80 [Tween 80],syringeability/injectability through a 20 G needle,[2],improved syringeability/injectability
"Poly(D,L-lactide) [PDLLA]",degradation time in vivo,[3],12-18 months
